Results published in PMC5656836, “Distinct activation mechanisms trigger the trypanocidal activity of DNA damaging prodrugs” (Molecular Microbiology, 2017).
“Also recorded” adds a separate entry of the source. Like-named read-outs stand apart in the source and are kept apart here.

Columns and labels:
[1] = tested on: L. major promastigotes; assay: Growth inhibition of L. major promastigotes (resazurin); type: cell-based; details: for EC50: Leishmania major, 144 h, promastigotes, 6 days, read-out: L. major EC50
[2] = tested on: differentiated THP‐1 cells; assay: Mammalian inhibition assay, differentiated THP-1 cells; type: cell-based; details: Homo sapiens, 72 h; differentiated THP‐1 cells, 3 days; read-out: THP‐1 EC50
[3] = tested on: RH1^RC1 T. brucei; assay: microbe, parasite or virus in culture; type: cell-based;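 as to ratio (fold difference in EC50 between RH1^RC1 and wild type): resistant clone selected by stepwise exposure to the aziridinyl benzoquinone prodrug in culture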
[4] = tested on: ΔTbsnm1 Tbcpr2++ T. brucei; type: cell-based
[5] = tested on: T. cruzi epimastigotes; assay: Growth inhibition of T. cruzi epimastigotes (resazurin); type: cell-based; details: for EC50: Trypanosoma cruzi, 336 h, epimastigotes, 14 days, read-out: T. cruzi EC50
[6] = tested on: bloodstream form T. brucei; assay: Growth inhibition of wild type / control bloodstream form T. brucei (resazurin); type: cell-based; details: for EC50: Trypanosoma brucei
[7] = tested on: T. brucei over expressing TbCPR2 (Tbcpr2++); assay: microbe, parasite or virus in culture; type: cell-based
[8] = tested on: mouse peritoneal macrophages; assay: Toxicity to mouse peritoneal macrophages (cell counts, Giemsa); type: cell-based, BALB/c mice; details: Peritoneal macrophage, 120 h, non‐cancerous primary cells, up to 5 days, read-out: EC50 towards mouse peritoneal macrophages
[9] = tested on: T. brucei over expressing TbNTR (Tbntr++); assay: microbe, parasite or virus in culture; type: cell-based; details: for EC50: Trypanosoma brucei, read-out: EC50 Tbntr++
[10] = tested on: T. brucei Tbsnm1 null mutants (ΔTbsnm1); assay: microbe, parasite or virus in culture; type: cell-based; details: for EC50: Trypanosoma brucei, read-out: EC50 ΔTbsnm1
[11] = tested on: differentiated THP‐1 cells; details: read-out: THP‐1 EC50, ref Voak et al., 2013; cited from earlier work
[12] = Table 3, BSF T. brucei wild type, read-out: EC50 Wild type
[13] = Table 4, wild type T. brucei, read-out: EC50 Control

In the case of `O=C1C(N2CC2)=C(N2CC2)C(=O)C(N2CC2)=C1N1CC1` [ABQ22], the “L. major SI” value [1] is reported as 1, the EC50 [1] is reported as 218 ± 20 nM and the EC50 [2] is reported as 138 ± 25 nM. For the same molecule, the “Susceptibility of RH1 selected (RH1^RC) lines relative to wild type” value [3] was “equally sensite”, the “ratio (fold difference in EC50 between RH1^RC1 and wild type)” value [3] was 1.2 and the EC50 ([3]; Trypanosoma brucei, read-out: EC50 RH1^RC1) was 232 ± 27 nM. For the same molecule, the “Fold more sensitive, ΔTbsnm1 Tbcpr2++ versus wild type” value [4] was 12.5 fold, the “T. cruzi SI” value [5] was 3 and the EC50 [5] was 55 ± 2 nM. The “T. brucei SI” value ([6]; Selectivity Index: fold difference in EC50 of THP‐1 line relative to parasite) was 1, the EC50 ([6]; 72 h, bloodstream form, 3 days, Table 1, activity of some compounds previously reported (Hall et al., 2012), read-out: T. brucei EC50) was 148 ± 1 nM and the EC50 ([6]; Table 2, parasites expressing wild type levels, read-out: EC50 Control) was 138 ± 25 nM. For the same molecule, the EC50 [6, 12] was 197 ± 31 nM, the EC50 [6, 13] was 138 ± 25 nM and the “Fold difference in EC50 Tbcpr2++ relative to control” value [7] was 20 ± 3 (0.14 ). The “Susceptibility of TbCPR2 or 3 over expressing lines relative to control cells” value [7] was “hypersensitive; also recorded: sevenfold”, the EC50 ([7]; Trypanosoma brucei, read-out: EC50 Tbcpr2++) was 20 nM and the EC50 [8] was 120 nM. The “Fold difference in EC50 Tbntr++ relative to control” value [9] was 148 ± 9 (1.07), the EC50 [9] was 148 nM and the “Ratio of EC50 values ΔTbsnm1 / control” value [10] was 0.15. The “Susceptibility of Tbsnm1 null mutants relative to wild type / control (fold more susceptible)” value [10] was “sevenfold” and the EC50 [10] was 21 ± 5 nM.

In the case of `CC1CS(=O)(=O)CCN1/N=C/c1ccc([N+](=O)[O-])o1` (stereo not shown) [Nifurtimox, reference compound], the EC50 [1] is reported as 6280 ± 40 nM, the EC50 [5] is reported as 2600 ± 400 nM and the EC50 [6, 12] is reported as 2700 ± 100 nM. It also gave an EC50 [6, 13] of 2850 ± 20 nM, an EC50 ([6]; read-out: EC50 Control) of 2980 ± 30 nM and an EC50 [9] of 315 nM. The EC50 [11] was > 100000 nM and the EC50 [10] was 2250 ± 90 nM.
